# “Also recorded” adds a separate entry of the source. Like-named read-outs stand apart in the source and are kept apart here.
# Tested on: BSA (bovine serum albumin)
# Assay: In vitro/in tubo glycation study: BSA + D-ribose, fluorescence intensity
# Format: biochemical
# Protocol: A study was conducted in vitro/in tubo to evaluate if the ingredients of the inventive composition have anti-glycation effects in an in tubo environment.
# The in tubo experiments were conducted to evaluate glycation of BSA (bovine serum albumin) under control conditions and with exposure to an embodiment of the inventive composition. Samples were prepared, including inventives, comparatives, baseline, and positive and negative controls.
# A test plate was prepared with discrete wells for receiving each of the test compositions. Solutions representing the active ingredient concentrations listed under “Ingredient” in Table 3, below, were added to a well containing BSA+D-ribose (the Indicator Solution) and PBS. The total amount of Test Solutions added for the inventive compositions was always the same for all tests-25 microliters-5 microliters of each Test Solution (Ingredient) per well. PBS was used as the solvent for the Test Solution. Plates were prepared in triplicate.
# Tested Compositions: Blank: PBS+BSA, Negative control: PBS+BSA+D-ribose, Positive control: PBS+BSA+D-ribose+Aminoguanidine, Five Inventive […]
# Samples were plated in triplicate and readings taken at the indicated wavelength at day 1 and day 14.
# Evaluations of Fluorescent Intensity were made at ex 370 nm/em 440 nm
# Samples were evaluated at time intervals of 0 days, 3 days, 14 Days, 21 Days. The main purpose of incorporating time intervals is to provide sufficient duration for capturing the anti-glycation effect. It is crucial to build in multiple time points to adequately capture the anti-glycation effects since they can vary depending on the specific ingredients used.
# Magnitude of fluorescence intensity is positively indicative of extent of glycation. Glycation is expected to be maximal with negative control (BSA plus D-ribose), while glycation of positive control with known antiglycation agent, Aminoguanidine, is expected to be reduced relative to negative control.
# Evaluation of anti-glycation effect of individual ingredients: each of Activated C, Dandelion Extract, Caffeine, Lavender Oil, and Vitamin E (5 microliter quantities) were plated with 245 microliter of [PBS+BSA+D-ribose]. Concentrations of each ingredient added to the wells were as follows Activated C (100%, 50%, 10%, 5% and 1%), Dandelion Extract (100%, 50%, 30%, 15% and 3%), Caffeine (2%, 1.5%, 1%, 0.5% and 0.1%), Lavender Oil (100%, 50%, 0.15%, 0.08% and 0.15%), and Vitamin E (100%, 50%, 1%, 0.5% and 0.1%).
# [1] = each ingredient alone, 5 microliter plated with 245 microliter PBS+BSA+D-ribose, five concentrations each, data not shown
compound,measurement,setting,value
"CCOC1=C(O)C(=O)O[C@@H]1[C@@H](O)CO [Activated C, 3-O-ETHYL ASCORBIC ACID]",anti-glycation effect of individual ingredients,[1],glycation effect only at high levels
same,anti-glycation effect of individual ingredients,"each ingredient alone, 5 microliter plated with 245 microliter PBS+BSA+D-ribose, five concentrations each, data not shown, listed as Ascorbic acid",reduction of glycation at high doses only
Cn1c(=O)c2c(ncn2C)n(C)c1=O [Caffeine],anti-glycation effect of individual ingredients,,no glycation effect; also recorded: no significant reduction in glycation
"N=C(N)NN [Positive control, Aminoguanidine]",Fluorescence intensity,"day 14 readings, ex 370 nm/em 440 nm, PBS+BSA+D-ribose, intensity positively indicative of extent of glycation",2.921
same,Percent reduction in glycation (%),"day 14 readings, relative to negative control (PBS+BSA+D-ribose)",23%
tocopherol [Vitamin E],anti-glycation effect of individual ingredients,[1],no glycation effect
same,anti-glycation effect of individual ingredients,"each ingredient alone, 5 microliter plated with 245 microliter PBS+BSA+D-ribose, five concentrations each, data not shown, listed as vitamin E",no significant reduction in glycation

# Source: US20250241838A1, “COSMETIC COMPOSITION FOR WITH ANTI-GLYCATION EFFECT FOR ENHANCING SKIN RESISTANCE TO AGING” (L'OREAL, priority 2024, published 2025)
